Here are results for one compound from US9522883B2, “Glycosidase inhibitors and uses thereof” (Alectos Therapeutics Inc., priority 2012, dated 2016).

This test concerns the target human O-GlcNAcase (Homo sapiens (Human), UniProt O60502). Description: Assay for determination of KI values for inhibition of O-GlcNAcase activity (fluorescence-based hOGA). In kind it is biochemical. Particulars: purified human O-GlcNAcase, 4-Methylumbelliferyl N-acetyl-β-D-glucosaminide substrate, pH 7.0, Cheng-Prusoff. As for the experimental part:
Enzymatic reactions were carried out in a reaction containing 50 mM NaH2PO4, 100 mM NaCl and 0.1% BSA (pH 7.0) using 2 mM 4-Methylumbelliferyl N-acetyl-β-D-glucosaminide dihydrate (Sigma M2133) dissolved in ddH2O, as a substrate. The amount of purified human O-GlcNAcase enzyme used in the reaction was 0.7 nM. Test compound of varying concentrations was added to the enzyme prior to initiation of the reaction. The reaction was performed at room temperature in a 96-well plate and was initiated with the addition of substrate. The production of fluorescent product was measured every 60 sec for 45 min with a Tecan Infinite M200 plate-reader with excitation at 355 nm and emission detected at […], with 4-Methylumbelliferone (Sigma M1381) used to produce a standard curve. The slope of product production was determined for each concentration of compound tested and plotted, using standard curve fitting algorithms for sigmoidal dose response curves. The values for a four parameter logistic curve fit of the data were determined.
KI values were determined using the Cheng-Prusoff equation; the Km of O-GlcNAcase for substrate was 0.2 mM.

Chain of human O-GlcNAcase (O60502 whole entry): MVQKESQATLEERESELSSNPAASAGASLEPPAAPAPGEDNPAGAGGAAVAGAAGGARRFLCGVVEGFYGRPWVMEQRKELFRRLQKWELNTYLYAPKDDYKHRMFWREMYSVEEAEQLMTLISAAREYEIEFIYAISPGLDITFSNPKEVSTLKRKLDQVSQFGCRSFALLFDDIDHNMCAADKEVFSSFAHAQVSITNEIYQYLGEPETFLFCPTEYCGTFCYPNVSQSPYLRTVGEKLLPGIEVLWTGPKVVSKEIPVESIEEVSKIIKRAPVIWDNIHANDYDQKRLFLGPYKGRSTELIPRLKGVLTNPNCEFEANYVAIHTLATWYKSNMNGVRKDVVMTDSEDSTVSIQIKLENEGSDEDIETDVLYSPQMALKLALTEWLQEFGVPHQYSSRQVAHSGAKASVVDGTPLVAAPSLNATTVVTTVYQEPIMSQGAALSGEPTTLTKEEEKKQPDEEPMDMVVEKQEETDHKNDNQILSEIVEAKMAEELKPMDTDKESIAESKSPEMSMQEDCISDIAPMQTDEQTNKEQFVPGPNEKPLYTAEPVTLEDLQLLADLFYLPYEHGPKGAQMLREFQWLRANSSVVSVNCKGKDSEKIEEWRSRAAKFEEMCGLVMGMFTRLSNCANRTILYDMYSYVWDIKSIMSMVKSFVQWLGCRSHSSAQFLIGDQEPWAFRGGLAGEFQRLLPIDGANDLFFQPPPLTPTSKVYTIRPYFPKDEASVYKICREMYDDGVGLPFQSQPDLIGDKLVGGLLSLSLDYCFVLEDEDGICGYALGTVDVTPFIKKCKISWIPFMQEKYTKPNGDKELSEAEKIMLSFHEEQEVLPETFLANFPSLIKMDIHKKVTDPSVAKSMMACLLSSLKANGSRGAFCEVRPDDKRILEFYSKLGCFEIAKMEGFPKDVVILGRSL

On to `CC(=O)N[C@H]1CN(CCCCc2ccccc2)[C@H](CO)[C@@H](O)[C@@H]1O` [Example 1, N-((3S,4R,5R,6R)-4,5-dihydroxy-6-(hydroxymethyl)-1-(4-phenylbutyl)piperidin-3-yl)acetamide], for which affinity was put at a Ki of 2580 nM.

As a reminder, the Ki is the dissociation constant of the complex between target and ligand, obtained from inhibition or displacement. A lower Ki goes with tighter binding.
